Test results published in patent US9346777B2, “Antiprotozoal compounds” (MediSynergics, LLC, priority 2012, dated 2016).

Tested on: T. brucei brucei
Test: T. brucei brucei growth inhibition assay (bloodstream forms, CellTiter-Glo ATP-bioluminescence)
Format: cell-based
Settings: Trypanosoma brucei; bloodstream forms of T. brucei brucei clone 427-221a; 40 hours at 37° C.; final DMSO 0.5%; 95% confidence intervals in parentheses
Protocol: The growth inhibition assay for T. brucei brucei was conducted as described previously by Z. B. Mackey et al (Kenny K. H. Ang, Joseline Ratnam, Jiri Gut, Jennifer Legac, Elizabeth Hansell, Zachary B. Mackey, Katarzyna M. Skrzypczynska, Anjan Debnath, Juan C. Engel, Philip J. Rosenthal, James H. McKerrow, Michelle R. Arkin, Adam R. Renslo (2011) “Mining a Cathepsin Inhibitor Library for New Antiparasitic Drug Leads”, PLoS Neglected Tropical Diseases, 5(5):e1023). Bloodstream forms of the monomorphic T. brucei brucei clone 427-221a were grown in complete HMI-9 medium containing 10% FBS, 10% Serum Plus medium (Sigma Inc., St. Louis, Mo., USA), 50 U/mL penicillin and […] (Invitrogen) at 37° C. under a humidified atmosphere and 5% CO2. Inhibitor stocks were prepared in 100% DMSO and screened at […] for percent inhibition values or serially diluted from […] in 10% DMSO for IC50 determinations. […] of diluted parasites ([…]) in sterile Greiner 96-well flat white opaque culture plates such that the final DMSO concentration was 0.5%. The 0% inhibition control wells contained 0.5% DMSO while 100% inhibition control wells contained […] thimerosal (Sigma). After compound addition, plates were incubated for 40 hours at 37° C. At the end of the incubation period, […] of CellTiter-Glo™ reagent (Promega Inc., Madison, Wis., USA) was added to each well and plates were placed on an orbital shaker at room temperature for 2 min to induce lysis. After an additional 10 min of incubation without shaking to stabilize the signal, the ATP-bioluminescence of each well was determined using an Analyst HT plate reader (Molecular Devices, Sunnyvale, Calif., USA). Raw values were converted to log 10 and percentage inhibition calculated relative to the controls. IC50 curve fittings were performed with Prism 4 software as above. Pentamidine was used as a comparator in the assay.

| SMILES | IC50 |
| --- | --- |
| CN(C)CCCC1(c2ccc(F)cc2)OCc2cc(C(=N)N)ccc21 (centres unmarked) [Example 1, 1-[3-(dimethylamino)propyl]-1-(4-fluorophenyl)-1,3-dihydro-2-benzofuran-5-carboximidamide] | 32 µM |
| CN(C)CCCC1(c2ccc(F)cc2)OCc2cc(C(=N)NCc3ccccc3)ccc21 (centres unmarked) [Example 4, N-benzyl-1-[3-(dimethylamino)propyl]-1-(4-fluorophenyl)-1,3-dihydro-2-benzofuran-5-carboximidamide] | 8.8 µM |
| CN(C)CCCC1(c2ccc(F)cc2)OCc2cc(C(=N)N3CCOCC3)ccc21 (centres unmarked) [Example 5, 1-[1-[3-(dimethylamino)propyl]-1-(4-fluorophenyl)-1,3-dihydro-2-benzofuran-5-yl]-1-(morpholin-4-yl)methan-imine] | 37 µM |
| CN(C)CCCC1(c2ccc(F)cc2)OCc2cc(C(=N)N3CCCC3)ccc21 (centres unmarked) [Example 6, 1-[1-[3-(dimethylamino)propyl]-1-(4-fluorophenyl)-1,3-dihydro-2-benzofuran-5-yl]-1-(pyrrolidin-1-yl)methan-imine] | 24 µM |
| CN(C)CCCC1(c2ccc(F)cc2)OCc2cc(-c3ncc[nH]3)ccc21 (centres unmarked) [Example 7] | 1.4 µM |
